Data: ChEMBL document CHEMBL1132858, “1,1-Dimethylallylcoumarins potently suppress both lipopolysaccharide- and interferon-gamma-induced nitric oxide generation in mouse macrophage RAW 264.7 cells” (2000)
The source made the active and inactive calls. The rule behind the calls is not given here.

Species on record: Mus musculus
Assay: Compound was tested for cytotoxicity against mouse macrophage RAW 264.7 cells using MTT assay; Inactive
Format: functional, cell-based

SMILES	Activity
C=C1COC2Oc3ccc4ccc(=O)oc4c3C12 (stereo not drawn)	inactive
C=CCc1c(O)ccc2ccc(=O)oc12	inactive
C=C(C)[C@H]1O[C@@H]1c1c(OC)ccc2ccc(=O)oc12	inactive
CC(C)(O)[C@@H]1Cc2c(ccc3ccc(=O)oc23)O1	inactive
O=c1ccc2c(O)cc(O)cc2o1	inactive
COc1ccc2ccc(=O)oc2c1C1=C(C)COC1=O	inactive
C=CCOc1ccc2ccc(=O)oc2c1	inactive

Species on record: Mus musculus
Assay: Compound was tested for the inhibitory activity against mouse macrophage RAW 264.7 cells at the concentration of 50 uM; Inactive
Format: functional, cell-based

SMILES	Activity
CC(C)=CCC/C(C)=C/CC/C(C)=C/COc1ccc2ccc(=O)oc2c1	inactive
C=CC(C)(C)Oc1c2c(c(C(C)(C)C=C)c3oc(=O)ccc13)OC(C)(C)C=C2	inactive
C=CC(C)(C)c1cc2c(O)c3c(c(C(C)(C)C=C)c2oc1=O)OC(C)(C)C=C3 [CLAUSARIN]	inactive
CC(C)=CCc1c(O)ccc2ccc(=O)oc12	inactive
C=CC(C)(C)c1c2c(c(O)c3ccc(=O)oc13)C=CC(C)(C)O2 [NORDENTATIN]	inactive
CC(C)=CCOc1ccc2ccc(=O)oc2c1	inactive

Species on record: Mus musculus
Assay: Percent inhibition of nitric oxide generation in both lipopolysaccharide and interferon gamma induced mouse macrophage RAW 264.7 cells
Format: functional

SMILES	Inhibition
C=C(COC(=O)CC(C)C)C1OC1c1c(OC)ccc2ccc(=O)oc12 (stereo not drawn)	86.1%
CC1(C)OC1COc1c2occc2cc2ccc(=O)oc12 (stereo not drawn) [HERACLENINPRANGENIN]	36.9%

Species on record: Mus musculus
Assay: Percent inhibition of nitric oxide generation in both lipopolysaccharide and interferon gamma induced mouse macrophage RAW 264.7 cells at the concentration of 10 uM.
Format: functional

SMILES	inhibition at 10 µM
C=CC(C)(C)Oc1c2c(c(C(C)(C)C=C)c3oc(=O)ccc13)OC(C)(C)C=C2	91.2%
C=CC(C)(C)c1cc2c(O)c3c(c(C(C)(C)C=C)c2oc1=O)OC(C)(C)C=C3 [CLAUSARIN]	91.2%
C=CC(C)(C)c1c2c(c(O)c3ccc(=O)oc13)C=CC(C)(C)O2 [NORDENTATIN]	91.2%
